The subject of one experiment is CCl4-treated mice. In words: CCl4 induced liver fibrosis in mice, collagen in the liver as marker of matrix accumulation. The conditions noted are these: peptides 25 mg/kg/mouse/day intraperitoneal, daily from day 32 for 10 days. The format is in vivo. How it is done:
Figure 1 Prevention of fibrosis progression by proline-containing cyclic and amidated linear peptides. Mice were injected for 6 weeks with CCl4 in order to induce liver fibrosis. Starting on day 32 the mice received daily intraperitoneal injections of 25 mg/kg/mouse/day of the peptides in 0.9% NaCl for a total of 10 days. CCl4-treated mice also received NaCl 0.9%. The healthy control group (CT) only received 0.9% NaCl. N= 4/ 10/ 8/ 5/ 10/ 8/ 11/ 7 in two experiments. The following peptides were tested on CCl4-treated mice: cyclic Pro-Gly-Leu-Gln-Gly-Glu (Cyclic PGLQGE), and compared to two controls: cyclic Pro-Gly-Leu-Asn-Gly-Glu (Cyclic CT1+P: cyclic PGLNGE) and cyclic Pro-Gly-Leu-Hyp-Gly-Glu (Cyclic CT2+P: cyclic PGLOGE). Linear Gly-Leu-Gln-Gly-Glu-NH2 (Linear GLQGE-NH2) was also tested and compared to two controls: linear Gly-Leu-Asn-Gly-Glu-NH2 (Linear CT1-NH2: linear GLNGE-NH2) and linear Gly-Leu-Hyp-Gly-Glu-NH2 (Linear CT2-NH2: linear GLOGE-NH2). *p<0.05. Evaluated by t-test. Data presented as mean +/- SEM. Figure 2 Prevention of fibrosis progression by cyclic peptides and acetylated linear peptides. Mice were injected for 6 weeks with CCl4 in order to induce liver fibrosis. Starting on day 32 the mice received daily intraperitoneal injections of 25 mg/kg/mouse/day of the peptides in 0.9% NaCl for a total of 10 days. CCl4-treated mice also received NaCl 0.9%. The healthy control group (CT) only received 0.9% NaCl. N= 5/ 18/ 9/ 9/ 6/ 5/ 4/ 4 in two experiments. The following peptides were tested on CCl4-treated mice: cyclic Gly-Leu-Gln-Gly-Glu (Cyclic GLQGE), and compared to two controls: cyclic Gly-Leu-Asn-Gly-Glu (Cyclic CT1: cyclic GLNGE) and cyclic Gly-Leu-Hyp-Gly-Glu (Cyclic CT2: cyclic GLOGE). Linear Ac-Gly-Leu-Gln-Gly-Glu (Linear Ac-GLQGE) was also tested and compared to two controls: linear Ac-Gly-Leu-Asn-Gly-Glu (Linear Ac-CT1: linear Ac-GLNGE) and linear Ac-Gly-Leu-Hyp-Gly-Glu (Linear Ac-CT2: linear Ac-GLOGE). *p<0.05, **p<0.005. Evaluated by t-test. Data presented as mean +/- SEM.
Mice were injected for 6 weeks with CCl4 in order to induce liver fibrosis. Starting on day 32 the mice received daily intraperitoneal injections of the peptides at a final dose of 25 mg/kg/mouse/day diluted in NaCl 0.9% for a total of 10 days. In these experiments, the following peptides were tested: cyclic peptide Pro-Gly-Leu-Gln-Gly-Glu, cyclic peptide Pro-Gly-Leu-Asn-Gly-Glu, cyclic peptide Pro-Gly-Leu-Hyp-Gly-Glu, linear peptide Gly-Leu-Gln-Gly-Glu-NH2, linear peptide Gly-Leu-Asn-Gly-Glu-NH2, linear peptide Gly-Leu-Hyp-Gly-Glu-NH2.
Mice were injected for 6 weeks with CCl4 in order to induce liver fibrosis. Starting on day 32 the mice received daily intraperitoneal injections of the peptides at a final dose of 25 mg/kg/mouse/day diluted in NaCl 0.9% for a total of 10 days. In these experiments, the following peptides were tested: cyclic peptide Gly-Leu-Gln-Gly-Glu, cyclic peptide Gly-Leu-Asn-Gly-Glu, cyclic peptide Gly-Leu-Hyp-Gly-Glu, linear peptide Ac-Gly-Leu-Gln-Gly-Glu, linear peptide Ac-Gly-Leu-Asn-Gly-Glu, linear peptide Ac-Gly-Leu-Hyp-Gly-Glu.

The test system of the next experiment is TGFβ. In words: unstimulated TGFβ expression in murine hepatocytes (data not shown). The class given is cell-based.
The mark [1] stands for this setting: Example 3, Figure 2, CCl4 for 6 weeks.
The mark [2] stands for this setting: Example 2, Figure 1, CCl4 for 6 weeks.

Entries after “also recorded” stand apart in the source; their conditions may differ. Residues, ends and D or L forms follow the SMILES beside them. No end group written: not given here.

In the case of `CC(C)C[C@@H]1NC(=O)CNC(=O)[C@H](CCC(=O)O)NC(=O)CNC(=O)[C@H](CCC(N)=O)NC1=O` [Cyclic GLQGE, Gly-Leu-Gln-Gly-Glu] (HELM PEPTIDE1{E.G.L.Q.G}$PEPTIDE1,PEPTIDE1,1:R1-5:R2$$$V2.0), the collagen accumulation result with CCl4-treated mice (setting [1]) is “larger inhibitory effect compared to the linear Gly-Leu-Gln-Gly-Glu-NH2 or Ac-Gly-Leu-Gln-Gly-Glu”; with CCl4-treated mice (Example 3, Figure 2, CCl4 for 6 weeks, listed as cyclic peptide Gly-Leu-Gln-Gly-Glu), “able to significantly reduce collagen accumulation; also recorded: more efficient in reducing collagen accumulation also in comparison to the cyclic peptide with proline Pro-Gly-Leu-Gln-Gly-Glu”. Consider `CC(C)C[C@@H]1NC(=O)CNC(=O)[C@@H]2CCCN2C(=O)[C@H](CCC(=O)O)NC(=O)CNC(=O)[C@@H]2C[C@@H](O)CN2C1=O` [Cyclic CT2+P, Pro-Gly-Leu-Hyp-Gly-Glu] (HELM PEPTIDE1{E.P.G.L.[Hyp].G}$PEPTIDE1,PEPTIDE1,1:R1-6:R2$$$V2.0), for which, in the experiment with CCl4-treated mice (setting [2]), the collagen accumulation entry is “neither the cyclic forms of the control peptides (with Pro: Pro-Gly-Leu-Asn-Gly-Glu or Pro-Gly-Leu-Hyp-Gly-Glu) nor the linear forms of the control peptides Gly-Leu-Asn-Gly-Glu-NH2 and Gly-Leu-Hyp-Gly-Glu-NH2 were able to reduce collagen amount in the liver”.

For `CC(C)C[C@@H]1NC(=O)CNC(=O)[C@@H]2CCCN2C(=O)[C@H](CCC(=O)O)NC(=O)CNC(=O)[C@H](CC(N)=O)NC1=O` [Cyclic CT1+P, Pro-Gly-Leu-Asn-Gly-Glu] (HELM PEPTIDE1{E.P.G.L.N.G}$PEPTIDE1,PEPTIDE1,1:R1-6:R2$$$V2.0), in the experiment on CCl4-treated mice (setting [2]), the collagen accumulation entry was “neither the cyclic forms of the control peptides (with Pro: Pro-Gly-Leu-Asn-Gly-Glu or Pro-Gly-Leu-Hyp-Gly-Glu) nor the linear forms of the control peptides Gly-Leu-Asn-Gly-Glu-NH2 and Gly-Leu-Hyp-Gly-Glu-NH2 were able to reduce collagen amount in the liver”.

As to `CC(C)C[C@@H]1NC(=O)CNC(=O)[C@H](CCC(=O)O)NC(=O)CNC(=O)[C@@H]2C[C@@H](O)CN2C1=O` [Cyclic CT2, Gly-Leu-Hyp-Gly-Glu] (HELM PEPTIDE1{E.G.L.[Hyp].G}$PEPTIDE1,PEPTIDE1,1:R1-5:R2$$$V2.0), the collagen accumulation result in the experiment on CCl4-treated mice (setting [1]) is on record as “failed to inhibit collagen accumulation”.

“GLNGE-NH2 [Linear CT1-NH2, Gly-Leu-Asn-Gly-Glu-NH2]”: in the experiment with TGFβ, the “unstimulated TGFβ expression” value is reported as “had no effect”. For the compound `CC(=O)NCC(=O)N[C@@H](CC(C)C)C(=O)N1C[C@H](O)C[C@H]1C(=O)NCC(=O)N[C@@H](CCC(=O)O)C(=O)O` [Linear Ac-CT2, Ac-Gly-Leu-Hyp-Gly-Glu], in the experiment on CCl4-treated mice (setting [1]), the collagen accumulation entry is “neither the cyclic forms nor the linear forms of the peptides Ac-Gly-Leu-Asn-Gly-Glu and Ac-Gly-Leu-Hyp-Gly-Glu were able to reduce collagen amount in the liver”. “Ac-GLQGE [Linear Ac-GLQGE, Ac-Gly-Leu-Gln-Gly-Glu]”: the collagen accumulation result in the experiment with CCl4-treated mice (setting [1]) was “able to significantly reduce CCl4-induced collagen accumulation”. With `CC(C)C[C@@H]1NC(=O)CNC(=O)[C@H](CCC(=O)O)NC(=O)CNC(=O)[C@H](CC(N)=O)NC1=O` [Cyclic CT1, Gly-Leu-Asn-Gly-Glu] (HELM PEPTIDE1{E.G.L.N.G}$PEPTIDE1,PEPTIDE1,1:R1-5:R2$$$V2.0), the collagen accumulation entry with CCl4-treated mice (setting [1]) is “failed to inhibit collagen accumulation”. `CC(C)C[C@@H]1NC(=O)CNC(=O)[C@@H]2CCCN2C(=O)[C@H](CCC(=O)O)NC(=O)CNC(=O)[C@H](CCC(N)=O)NC1=O` [Cyclic PGLQGE, Pro-Gly-Leu-Gln-Gly-Glu] (HELM PEPTIDE1{E.P.G.L.Q.G}$PEPTIDE1,PEPTIDE1,1:R1-6:R2$$$V2.0): in the experiment with CCl4-treated mice (setting [2]), the collagen accumulation entry is listed as “able to significantly reduce collagen accumulation”.

As for “Ac-GLNGE [Linear Ac-CT1, Ac-Gly-Leu-Asn-Gly-Glu]”, the collagen accumulation entry in the experiment with CCl4-treated mice (setting [1]) was “neither the cyclic forms nor the linear forms of the peptides Ac-Gly-Leu-Asn-Gly-Glu and Ac-Gly-Leu-Hyp-Gly-Glu were able to reduce collagen amount in the liver”. Turning to `CC(C)C[C@H](NC(=O)CN)C(=O)N1C[C@H](O)C[C@H]1C(=O)NCC(=O)N[C@@H](CCC(=O)O)C(N)=O` [Linear CT2-NH2, Gly-Leu-Hyp-Gly-Glu-NH2], in the experiment with TGFβ, the “unstimulated TGFβ expression” value is “had no effect”. Regarding “GLQGE-NH2 [Linear GLQGE-NH2, Gly-Leu-Gln-Gly-Glu-NH2]”, the “unstimulated TGFβ expression” value in the experiment on TGFβ was “efficiently inhibits unstimulated TGFβ expression in murine hepatocytes”. In the experiment with CCl4-treated mice (setting [2]), the collagen accumulation result is “able to significantly reduce CCl4-induced collagen accumulation”.

Values taken from patent publication EP3771464A1, “PEPTIDES AS INHIBITOR OF FIBROTIC MATRIX ACCUMULATION” (Max-Planck-Gesellschaft zur Förderung der Wissenschaften …, priority 2019, dated 2021).
